Measurements published in US6544727B1, “Methods and devices for the removal of psoralens from blood products” (Cerus Corporation, priority 1995, dated 2003).
Entries after “also recorded” stand apart in the source; their conditions may differ. Like-named read-outs stand apart in the source and are kept apart here.

Columns and labels:
[1] = test system: R17 bacteriophage; test: R17 bacteriophage inactivation at constant concentration, varying doses of UV light; assay type: cell-based; settings: 1.0-3.0 J/cm^2, FIGS. 11-17
Description: Compounds of the present invention were also tested at a constant concentration for varying doses of UV light. Three sets of 1.5 mL tubes were prepared containing 0.6mL aliquots of R17 in DMEM (prepared as described above). The compound tested was added at the desired concentration and the samples were vortexed. The samples were then irradiated at intervals of 1.0 J/cm^2, until 3.0 J/cm^2 was reached. Between each 1.0 J/cm^2 interval, 100 μL was removed from each sample and placed in the first corresponding dilution tube, then five sequential dilutions were performed for each compound tested, at all 3 irradiation doses, as described above in this example.
Then 50 μL of Hfr 3000 bacteria was added to each tube, 3 mL of top agar was added and the tube contents were vortexed The contents of each tube was poured into its own LB plate and the plates were incubated overnight at 37° C. Plaques were counted by visual inspection the following morning.

[2] = test system: HIV-1; settings: for HIV Log Kill: 1 minute irradiation
Description: As in the R17 assay, small aliquots of the compounds listed in TABLES 10 and 11, below, at the concentrations listed in the table, were added to stock HIV-1 to a total of 0.5 mL. The stock HIV (10^5−10^7 plaque forming units/mL) was in DMEM15% FBS. […] Controls included HIV-1 stock only, HIV-1 plus UVA only, and HIV-1 plus the highest concentration of each psoralen tested, with no UVA. Post irradiation, all samples were store frozen at −70° C. until assayed for infectivity by a microtiter plaque assay. Aliquots for measurement of residual HIV infectivity in the samples treated with a compound of the present invention were withdrawn and cultured.
Residual HIV infectivity was assayed using an MT-2 infectivity assay. […] The assay medium was 85% DMEM (with a high glucose concentration) containing 100 μg of streptomycin, 100 U of penicillin, 50 μg of gentamicin, and 1 μg of amphotericin B per mL, 15% FBS and 2 μg of Polybrene (Sigma Chemical Co., St. Louis, Mo.) per mL. Test and control samples from the inactivation procedure were diluted in 50% assay medium and 50% normal human pooled plasma The samples were serially diluted directly in 96-well plates (Corning Glass Works, Corning, N.Y.). The plates were mixed on an oscillatory shaker for 30 seconds and incubated at 37° C. in a 5% CO2 atmosphere for 1 to 18 hours. […] After an additional 1 hour of incubation at 37° C. in 5% CO2, 0.075 mL of assay medium containing 1.6% SeaPlaque agarose (FMC Bioproducts, Rockland, Me.) and prewarmed to 38.5° C. was added to each well. The plates were kept at 37° C. for a few minutes until several plates had accumulated and then centrifuged in plate carriers at 600×g for 20 minutes in a centrifuge precooled to 10° C. In the centrifuge, cell monolayers formed prior to gelling of the agarose layer. The plates were incubated for 5 days at 37° C. in 5% CO2 and stained by the addition of 0.05 mL of 50 μg/mL propidium iodide (Sigma Chemical Co.) in phosphate-buffered saline (pH 7.4) to each well. After 24 to 48 hours, the red fluorescence-stained microplaques were visualized by placing the plates on an 8,000 μW/cm^2304 nm UV light box (Fotodyne, Inc., New Berlin, Wis.). The plaques were counted at a magnification of x20 to x25 through a stereomicroscope.

[3] = test system: R17 bacteriophage; test: R17 bacteriophage inactivation assay, varying compound concentration; assay type: cell-based; settings: for R17 inactivation efficiency compared with AMT or 8-MOP (in words): varying concentration, Tables 6-9, FIGS. 6-10
Description: An r-17 bacteriophage assay was used in this example to predict pathogen inactivation efficiency and to determine nucleic acid binding of the photoreactive binding compounds of the present invention. In the r-17 assay, the bacteriophage was placed in a solution with each compound tested and was then irradiated. The ability of the phage to subsequently infect bacteria and inhibit their growth was measured. The bacteriophage was selected for its relatively accessible nucleic acid such that the culture growth inhibition would accurately reflect nucleic acid damage by the test compounds. The bacteriophage assay for nucleic acid binding to test compounds offers a safe and inexpensive procedure to identify compounds likely to display efficient pathogen inactivation.
The R17 was grown up in Hfr 3000 bacteria, approximate titer 5×10^11. (R17 and Hfr 3000 were obtained from American Tissue Culture Collection (ATCC), Washington, D.C.) The R17 phage stock was added to a solution of 15% fetal bovine serum in Dulbecco's Modified Eagles Medium (DMEM) to a final phage concentration of 10^9/mL. An aliquot (0.5 mL) was transferred to a 1.5 mL snap-top polyethylene tube. An aliquot (0.004-0.040 mL) of the test compound stock solution prepared in water, ethanol or dimethylsulfoxide at 0.80-8.0 mM was added to the tube. Compounds were tested at concentrations between 4 μM and 320 μM. […] The tubes were placed in a light device as described in EXAMPLE 1 and irradiated for between 1 and 10 minutes. Sterile 13 mL dilution tubes were prepared; each test compound required one tube with 0.4 mL of Luria broth (LB) and five tubes containing 0.5 mL of LB broth. To make the dilutions, a 0.100 mL aliquot of the irradiated solution of phage and test compound was added to the first dilution tube of 0.4 mL of media then 0.020 mL of this solution was added to the second tube of 0.5 mL medium (1:25). The second solution was then diluted serially (1:25) into the remaining tubes. To each diluted sample was added 0.050 mL of Hfr 3000 bacteria cultured overnight and 3 mL of molten LB top agar and the mixed materials were poured onto LB broth plates. After the top agar hardened, the plates were incubated at 37° C. overnight. The plaque forming units were then counted the following morning and the titer of the phage remaining after phototreatment was calculated based on the dilution factors.
The following controls were run: the “phage only” in which phage was not treated with test compound and not irradiated (listed as “starting titer” in the tables below); the “UV only” in which the phage was irradiated in the absence of test compound; and the “dark” control in which the phage/test compound solution was not irradiated before it was diluted and plated.

[4] = test system: Salmonella typhimurium tester strains; test: Ames Salmonella dark mutagenicity test, overall assessment; assay type: cell-based; settings: two-fold or greater increase in revertants above background and dose dependence
Description: A brief description for each procedure is given here. […] TA97a, TA98, TA1537 and TA1538 are frameshift tester strains. TA100 and TA102 are base-substitution tester strains.
This served as the background controls.
For all experiments, the pre-incubation procedure was used.

[5] = test system: Salmonella tester strain TA100
Description: (§1) In this example the compounds of the present invention are tested for their dark mutagenicity using an Ames assay. The procedures used for the Salmonella mutagenicity test as described in detail by Maron and Ames were followed exactly. Maron, D. M. and B. N. Ames, Mutation Research 113: 173 ( 1983). A brief description for each procedure is given here. The tester strains TA97a, TA98, TA100, TA102, TA1537 and TA1538 were obtained from Dr. Ames. TA97a, TA98, TA1537 and TA1538 are frameshift tester strains. TA100 and TA102 are base-substitution tester strains. Upon receipt each strain was cultured under a variety of conditions to confirm the genotypes specific to the strains.
(§2) The first tests done with the strains were to determine the range of spontaneous reversion for each of the strains. With each mutagenicity experiment the spontaneous reversion of the tester strains to histidine independence was measured and expressed as the number of spontaneous revertants per plate. This served as the background controls.
(§3) For all experiments, the pre-incubation procedure was used. In this procedure one vial of each tester strain was thawed and 20 μL of this culture was added to 6 mL of Oxoid Nutrient Broth #2. This solution was allowed to shake for 10 hours at 37° C. In the pre-incubation procedure, 0.1 mL of this overnight culture was added to each of the required number of sterile test tubes. To half of the tubes 0.5 mL of a 10% S-9 solution containing Aroclor 1254 induced rat liver extract (Molecular Toxicology Inc., Annapolis, Md.), and MgCl2, KCl, glucose-6-phosphate, NADP, and sodium phosphate buffer (Sigma, St. Louis, Mo.) were added. To the other half of the tubes 0.5 mL of 0.2M sodium phospate buffer, pH 7.4, was used in place of the S-9 mixture (the—S9samples). Finally 0.1 mL of the test solution containing either 0, 0.1, 0.5, 1, 5, 10, 50, 100, 250, or 500 μg/mL of the test compound was added. The 0.7 mL mixture was vortexed and then pre-incubated while shaking for 20 minutes at 37° C. After shaking, 2 mL of molten top agar supplemented with histidine and biotin were added to the 0.7 mL mixture and immediately poured onto a minimal glucose agar plate (volume of base agar was 20 mL). The top agar was allowed 30 minutes to solidify and then the plates were inverted and incubated for 44 hours at 37° C. After incubation the number of revertant colonies on each plate were counted. […] (“n” represents the number of replicates performed for each data point.)

[6] = test system: Salmonella tester strain TA1538
Description: as §1, §2, §3

[7] = 16 μM, starting titer approximately 5.4 logs (Table 11)
[8] = 32 μM, starting titer approximately 5.4 logs (Table 11)
[9] = 64 μM, starting titer approximately 5.4 logs (Table 11)
[10] = 8 μM, starting titer approx. 7.2 logs, 1 minute irradiation (Table 7)
[11] = 16 μM, starting titer approx. 7.2 logs, 1 minute irradiation (Table 7)
[12] = 32 μM, starting titer approx. 7.2 logs, 1 minute irradiation (Table 7)
[13] = Experiment 1, 32 μM compound, 1′ uva
[14] = Experiment 1, 32 μM compound, 10′ uva
[15] = Experiment 1, compound only (32 μM), no uva
[16] = Experiment 2, 3.2 μM compound, 1′ uva
[17] = Experiment 2, 3.2 μM compound, 10′ uva
[18] = Experiment 2, compound only (3.2 μM), no uva
[19] = Experiment 3, 4 μM compound, 1′ uva
[20] = Experiment 3, 8 μM compound, 1′ uva
[21] = Experiment 3, 16 μM compound, 1′ uva
[22] = Experiment 3, compound only (16 μM), no uva
[23] = 64 μM, starting titer approximately 5 logs (Table 10)
[24] = 16 μM, starting titer approx. 7.1 logs, 1 minute irradiation = 1.2 J/cm^2 (Table 8)
[25] = 32 μM, starting titer approximately 5 logs (Table 10)

Cc1oc2c(C)c3oc(=O)cc(C)c3cc2c1CNCCCNCCCN [Compound 12, 4′-(9-amino-2,6-diaza)nonyl-4,5′,8-trimethylpsoralen]
R17 inactivation efficiency compared with AMT (in words) [1]: more efficient at inactivating R17 than was AMT
HIV Log Kill [2, 7]: 0.4 log
HIV Log Kill [2, 8]: 0.8 log
HIV Log Kill [2, 9]: 1.3 log

Cc1oc2c(C)c3oc(=O)cc(C)c3cc2c1CNCCN [Compound 1, 4′-(4-amino-2-aza)butyl-4,5′,8-trimethylpsoralen]
R17 Log Kill [3, 10]: 1.7 log
R17 Log Kill [3, 11]: 2.8 log
R17 Log Kill [3, 12]: 5.3 log
R17 log kill (32 μM) ([3]; 32 μM, starting titer approx. 7.5 logs, 1 minute irradiation): >6.6 log
Log Titer [3, 13]: <1
Logs Killed [3, 13]: >6.7 logs
Log Titer [3, 14]: <1
Logs Killed [3, 14]: >6.7 logs
Log Titer [3, 15]: 7.6
Logs Killed [3, 15]: 0.1 logs
Log Titer [3, 16]: 6.9
Logs Killed [3, 16]: 0.9 logs
Log Titer [3, 17]: 6.1
Logs Killed [3, 17]: 1.7 logs
Log Titer [3, 18]: 7.7
Logs Killed [3, 18]: 0.1 logs
Log Titer [3, 19]: 6.3
Logs Killed [3, 19]: 1.0 logs
Log Titer [3, 20]: 5.6
Logs Killed [3, 20]: 1.7 logs
Log Titer [3, 21]: 3.9
Logs Killed [3, 21]: 3.4 logs
Log Titer [3, 22]: 7.3
Logs Killed [3, 22]: 0 logs
R17 inactivation efficiency compared with AMT or 8-MOP (in words) [3]: much higher R17 inactivation efficiency than does 8-MOP
mutagenic response in the Ames assay (in words) [4]: weak frameshift mutagen in TA1538 at 5 μg/plate in the presence of S9; also recorded: displayed mutation in the TA100 strain, but only in the absence of S9
revertant colonies per plate ([5]; TA100 + S9, 5 μg/plate): −24
revertant colonies per plate ([5]; TA100 + S9, 10 μg/plate): −22
revertant colonies per plate ([5]; TA100 − S9, 5 μg/plate): 292
revertant colonies per plate ([5]; TA100 − S9, 10 μg/plate): 337
revertant colonies per plate ([6]; TA1538 + S9, 5 μg/plate): 21
revertant colonies per plate ([6]; TA1538 + S9, 10 μg/plate): 22
revertant colonies per plate ([6]; TA1538 − S9, 5 μg/plate): 10
revertant colonies per plate ([6]; TA1538 − S9, 10 μg/plate): 12
HIV Log Kill [2, 23]: 2.1 log

Cc1oc2c(C)c3oc(=O)cc(C)c3cc2c1CNCCCNCCCCNCCCN [Compound 15, 4′-(14-amino-2,6,11-triaza)tetradecyl-4,5′,8-trimethylpsoralen]
R17 inactivation efficiency compared with AMT (in words) [1]: more efficient at inactivating R17 than was AMT

Cc1oc2c(C)c3oc(=O)cc(C)c3cc2c1CCN [Compound 3, 4′-(2-aminoethyl)-4,5′,8-trimethylpsoralen]
R17 Log Kill ([3]; 8 μM, starting titer approx. 7.1 logs, 1 minute irradiation = 1.2 J/cm^2 (Table 8)): 5.6 log
R17 Log Kill [3, 10]: >6.2 log
R17 Log Kill [3, 24]: >6.1 log
R17 Log Kill [3, 11]: >6.2 log
R17 Log Kill [3, 12]: >6.2 log
R17 inactivation efficiency compared with AMT or 8-MOP (in words) [3]: significantly higher inactivation efficiency than does AMT
mutagenic response in the Ames assay (in words) [4]: no mutagenicity
revertant colonies per plate ([5]; TA100 + S9, 5 μg/plate): −19
revertant colonies per plate ([5]; TA100 + S9, 10 μg/plate): 8
revertant colonies per plate ([5]; TA100 − S9, 5 μg/plate): 47
revertant colonies per plate ([5]; TA100 − S9, 10 μg/plate): 47
revertant colonies per plate ([6]; TA1538 + S9, 5 μg/plate): 1
revertant colonies per plate ([6]; TA1538 + S9, 10 μg/plate): 9
revertant colonies per plate ([6]; TA1538 − S9, 5 μg/plate): 0
revertant colonies per plate ([6]; TA1538 − S9, 10 μg/plate): −6
HIV Log Kill [2, 25]: 2.7 log
HIV Log Kill [2, 23]: >3.8 log
HIV inactivation compared with AMT (in words) ([2]; cell-free HIV, 64 μM of compound or higher for compounds 2 and 3): significantly more active than AMT

Cc1oc2c(C)c3oc(=O)cc(C)c3cc2c1CNCCCCCN [Compound 10, 4′-(7-amino-2-aza)heptyl-4,5′,8-trimethylpsoralen]
R17 inactivation efficiency compared with AMT (in words) [1]: more efficient at inactivating R17 than was AMT
HIV Log Kill [2, 7]: 2.0 log
HIV Log Kill [2, 8]: >3.5 log
HIV Log Kill [2, 9]: >3.5 log

Cc1oc2c(C)c3oc(=O)cc(C)c3cc2c1COCCCN [Compound 4, 4′-(5-amino-2-oxa)pentyl-4,5′,8-trimethylpsoralen]
R17 Log Kill [3, 24]: 2.3 log
R17 Log Kill ([3]; 32 μM, starting titer approx. 7.1 logs, 1 minute irradiation = 1.2 J/cm^2 (Table 8)): 4.3 log
R17 Log Kill ([3]; 64 μM, starting titer approx. 7.1 logs, 1 minute irradiation = 1.2 J/cm^2 (Table 8)): >6.1 log
mutagenic response in the Ames assay (in words) [4]: no mutagenicity
revertant colonies per plate ([5]; TA100 + S9, 5 μg/plate): −10
revertant colonies per plate ([5]; TA100 + S9, 10 μg/plate): −3
revertant colonies per plate ([5]; TA100 − S9, 5 μg/plate): −41
revertant colonies per plate ([5]; TA100 − S9, 10 μg/plate): 3
revertant colonies per plate ([6]; TA1538 + S9, 5 μg/plate): 7
revertant colonies per plate ([6]; TA1538 + S9, 10 μg/plate): −2
revertant colonies per plate ([6]; TA1538 − S9, 5 μg/plate): −2
revertant colonies per plate ([6]; TA1538 − S9, 10 μg/plate): −2
HIV Log Kill [2, 25]: 2.2 log
HIV Log Kill [2, 23]: >3.6 log
